Results taken from patent US20250281460A1, “PEGYLATED BILIRUBIN FOR THE TREATMENT OF […], OBESITY, FATTY LIVER DISEASE, CARDIOVASCULAR DISEASES AND TYPE II DIABETES” (The University of Toledo, priority 2019, published 2025).

System: 3T3-Vector cells
Assay: SeaHorse mitochondrial respiration in 3T3-Vector cells
Assay type: cell-based, mouse
Settings: lentiviral empty vector control cells
Text: To investigate the specific role of bilirubin on PPARα or PPARγ as well as mitochondrial function and gene regulation, 3T3-LI cells that overexpressed each receptor (3T3-PPARα or 3T3-PPARγ2) were generated via lentivirus (FIGS. 2A-2B). […] The 3T3-Vector cells had no responses to biliverdin in FIGS. 2A-2B.
Cellular respiration was quantified using the Seahorse Extracellular Flux Analyzer XF-96 (Agilent Technologies, Cedar Creek, TX). The Seahorse XF Cell Mito Stress Test Kit (Agilent Technologies, Cat #103015-100) was used for analysis of cellular respiration. BAT or 3T3-L1 cells were seeded on a XF96 cell culture microplate (Agilent 101085-004) at 20,000 cells per well. Cells were then differentiated as previously described for 9 days. […] The oxygen consumption rate (OCR) and extracellular acidification rate (ECAR) were used to quantify the cellular energy phenotype of the cells. After treatment, cells were washed twice with Seahorse Bioscience Assay Media (XF Base media with 25 mM Glucose, 2 mM […], and 1 mM Sodium Pyruvate) then incubated with the buffer for 1 hour in a non-CO2 incubator. The Seahorse Cartridge ports were loaded with […] of assay media with […] FCCP, 10 μM Oligomycin, 5 μM Rotenone/Antimycin A in different ports an hour before assay. […] The raw data and graphs were supplied as an Excel File or Graphpad Prizm file.

In the case of `C=CC1=C(C)/C(=C/C2=NC(=C\c3[nH]c(/C=C4\NC(=O)C(C)=C4C=C)c(C)c3CCC(=O)O)/C(CCC(=O)O)=C2C)NC1=O` [biliverdin], the “responses (mitochondrial respiration)” value was “no responses”.
